From patent US20210053957A1, “HERBICIDAL COMPOUNDS” (SYNGENTA PARTICIPATIONS AG, priority 2018, published 2021)

Key:
Assay in all cases: Post-emergence efficacy, glasshouse spray test
Assay type in all cases: in vivo
[1] = system: Chenopodium album (CHEAL); details: Application Rate 500 g/Ha, evaluated after 13 days; for pest or weed control at 500 g/ha: Chenopodium album, post-emergence, 312 h, read-out: Control of weed species after post-emergence application, CHEAL (100=total damage to plant; 0=no damage to plant)
Method: (§1) Seeds of a variety of test species were sown in standard soil in pots. After cultivation for 14 days (post-emergence) under controlled conditions in a glasshouse (at 24/16° C. day/night; 14 hours light; 65% humidity), the plants were sprayed with an aqueous spray solution derived from the dissolution of the technical active ingredient formula (I) in a small amount of acetone and a special solvent and emulsifier mixture referred to as IF50 (11.12% Emulsogen EL360 TM+44.44% N-methyl pyrrolidone+44.44% Dowanol DPM glycolether), to create a 50 g/l solution which was then diluted to required concentration using 0.25% or 1% Empicol ESC70 (Sodium lauryl ether sulphate)+1% ammonium sulphate as diluent. The test plants were then grown in a glasshouse under controlled conditions (at 24/16° C., day/night; 14 hours light; 65% humidity) and watered twice daily. After 13 days the test was evaluated (100=total damage to plant; 0=no damage to plant).
(§2) Ipomoea hederacea (IPOHE), Euphorbia heterophylla (EPHHL), Chenopodium album (CHEAL), Amaranthus palmeri (AMAPA), Lolium perenne (LOLPE), Digitaria sanguinalis (DIGSA), Eleusine indica (ELEIN), Echinochloa crus-galli (ECHCG), Setaia fabei (SETFA)

[2] = system: Digitaria sanguinalis (DIGSA); details: Application Rate 500 g/Ha, evaluated after 13 days; for pest or weed control at 500 g/ha: Digitaria sanguinalis, post-emergence, 312 h, read-out: Control of weed species after post-emergence application, DIGSA (100=total damage to plant; 0=no damage to plant)
Method: as §1, §2

[3] = system: Echinochloa crus-galli (ECHCG); details: Application Rate 500 g/Ha, evaluated after 13 days; for pest or weed control at 500 g/ha: Echinochloa crus-galli, post-emergence, 312 h, read-out: Control of weed species after post-emergence application, ECHCG (100=total damage to plant; 0=no damage to plant)
Method: as §1, §2

Eleusine indica (ELEIN) = details: Application Rate 500 g/Ha, evaluated after 13 days; for pest or weed control at 500 g/ha: Eleusine indica, post-emergence, 312 h, read-out: Control of weed species after post-emergence application, ELEIN (100=total damage to plant; 0=no damage to plant)
Method: as §1, §2

[4] = system: Ipomoea hederacea (IPOHE); details: Application Rate 500 g/Ha, evaluated after 13 days; for pest or weed control at 500 g/ha: Ipomoea hederacea, post-emergence, 312 h, read-out: Control of weed species after post-emergence application, IPOHE (100=total damage to plant; 0=no damage to plant)
Method: as §1, §2

Lolium perenne (LOLPE) = details: Application Rate 500 g/Ha, evaluated after 13 days; for pest or weed control at 500 g/ha: Lolium perenne, post-emergence, 312 h, read-out: Control of weed species after post-emergence application, LOLPE (100=total damage to plant; 0=no damage to plant)
Method: as §1, §2

Setaia fabei (SETFA) = details: Application Rate 500 g/Ha, evaluated after 13 days; for pest or weed control at 500 g/ha: Setaria faberi, post-emergence, 312 h, read-out: Control of weed species after post-emergence application, SETFA (100=total damage to plant; 0=no damage to plant)
Method: as §1, §2

[5] = system: Amaranthus palmeri (AMAPA); details: Application Rate 500 g/Ha, evaluated after 13 days; for pest or weed control at 500 g/ha: Amaranthus palmeri, post-emergence, 312 h, read-out: Control of weed species after post-emergence application, AMAPA (100=total damage to plant; 0=no damage to plant)
Method: as §1, §2

Row | Compound | pest or weed control at 500 g/ha [1] [%] | pest or weed control at 500 g/ha [2] [%] | pest or weed control at 500 g/ha [3] [%] | pest or weed control at 500 g/ha (Eleusine indica (ELEIN)) [%] | pest or weed control at 500 g/ha [4] [%] | pest or weed control at 500 g/ha (Lolium perenne (LOLPE)) [%] | pest or weed control at 500 g/ha (Setaia fabei (SETFA)) [%] | pest or weed control at 500 g/ha [5] [%] | Control of weed species after post-emergence application, AMAPA (100=total damage to plant; 0=no damage to plant) [5] | Control of weed species after post-emergence application, CHEAL (100=total damage to plant; 0=no damage to plant) [1] | Control of weed species after post-emergence application, DIGSA (100=total damage to plant; 0=no damage to plant) [2] | Control of weed species after post-emergence application, ECHCG (100=total damage to plant; 0=no damage to plant) [3] | Control of weed species after post-emergence application, ELEIN (100=total damage to plant; 0=no damage to plant) (Eleusine indica (ELEIN)) | Control of weed species after post-emergence application, IPOHE (100=total damage to plant; 0=no damage to plant) [4] | Control of weed species after post-emergence application, LOLPE (100=total damage to plant; 0=no damage to plant) (Lolium perenne (LOLPE)) | Control of weed species after post-emergence application, SETFA (100=total damage to plant; 0=no damage to plant) (Setaia fabei (SETFA))
1 | O=C(O)CC[n+]1ccc(-c2nc(Cl)cs2)cn1 [Compound A46] | 70 | 60 | 80 | 60 | 50 | 40 | 60 |  |  |  |  |  |  |  |  | 
2 | O=S(=O)([O-])CC[n+]1ccc(-c2ccco2)cn1 [Compound A53] |  | 90 | 30 | 60 | 50 | 20 | 40 | 60 |  |  |  |  |  |  |  | 
3 | COC(=O)CCC[n+]1ccc(-c2ncco2)cn1 [Compound A69] | 90 | 90 | 80 | 90 | 40 | 30 | 90 | 90 |  |  |  |  |  |  |  | 
4 | Cc1coc(-c2cc[n+](CCC(=O)O)nc2)n1 [Compound A55] | 80 | 100 | 100 | 100 | 20 | 70 | 100 | 100 |  |  |  |  |  |  |  | 
5 | OCCC[n+]1ccc(-c2ncco2)cn1 [Compound A70] | 40 | 80 | 40 | 40 | 30 | 20 | 40 | 40 |  |  |  |  |  |  |  | 
6 | O=S(=O)([O-])CC[n+]1ccc(-c2ccno2)cn1 [Compound A79] | 90 | 90 | 80 | 100 | 80 | 70 | 90 | 100 |  |  |  |  |  |  |  | 
7 | Cc1nsc(-c2cc[n+](CCS(=O)(=O)[O-])nc2)c1C [Compound A54, 2-[4-(3,4-dimethylisothiazol-5-yl)pyridazin-1-ium-1-yl]ethanesulfonate] | 50 | 90 | 70 | 80 | 10 | 60 | 70 | 80 |  |  |  |  |  |  |  | 
8 | COc1csc(-c2cc[n+](CCS(=O)(=O)[O-])nc2)n1 [Compound A26] | 40 | 30 | 20 | 40 | 40 | 30 | 40 | 20 |  |  |  |  |  |  |  | 
9 | O=C(O)CC[n+]1ccc(-c2cccs2)cn1 [Compound A41] | 60 | 0 | 0 | 0 | 10 | 0 | 0 | 0 |  |  |  |  |  |  |  | 
10 | COC(=O)C[n+]1ccc(-c2ncco2)cn1 [Compound A66] | 60 | 60 | 70 | 90 | 10 | 20 | 70 | 50 |  |  |  |  |  |  |  | 
11 | COC(=O)CCC[n+]1ccc(-c2nccs2)cn1 [Compound A114] | 60 | 70 | 40 | 90 | 10 | 30 | 50 | 100 |  |  |  |  |  |  |  | 
12 | CC(C)c1csc(-c2cc[n+](CCC(=O)O)nc2)n1.O=C([O-])C(F)(F)F [Compound A24] |  |  |  |  |  |  |  |  | 0 | 0 | 10 | 30 | 20 | 10 | 10 | 20
13 | O=P(O)(O)CC[n+]1ccc(-c2ncco2)cn1 [Compound A77] | 70 | 90 | 60 | 0 | 60 | 0 | 80 | 50 |  |  |  |  |  |  |  | 
14 | Cn1cc(-c2cc[n+](CCS(=O)(=O)[O-])nc2)nn1 [Compound A81] | 40 | 70 | 30 | 10 | 10 | 10 | 50 | 50 |  |  |  |  |  |  |  | 
15 | Cn1cc(-c2cc[n+](CCC(=O)O)nc2)nn1 [Compound A80] | 10 | 60 | 0 | 10 | 10 | 0 | 40 | 40 |  |  |  |  |  |  |  | 
16 | O=C(O)c1ccccc1C[n+]1ccc(-c2ncco2)cn1 [Compound A91] | 60 | 40 | 20 | 40 | 20 | 10 | 20 | 40 |  |  |  |  |  |  |  | 
17 | O=C(O)CC[n+]1ccc(-c2ccco2)cn1 [Compound A52] |  | 30 | 10 | 10 | 10 | 0 | 10 | 50 |  |  |  |  |  |  |  | 
18 | Cn1nnc(-c2cc[n+](CCC(=O)O)nc2)n1 [Compound A28] | 90 | 70 | 100 | 100 | 30 | 70 | 100 | 100 |  |  |  |  |  |  |  | 
19 | O=S(=O)([O-])CC[n+]1ccc(-c2ncc(Cl)s2)cn1 [Compound A44] |  | 50 | 30 | 50 | 60 | 30 | 60 | 100 |  |  |  |  |  |  |  | 
